# Measurements from US10023557B2 (LifeSci Pharmaceuticals, Inc., priority 2015, dated 2018).
# Target: cellular kallikrein activity (Homo sapiens (Human), UniProt P03952)
# Experiment: In vitro cellular assay (contact assay): kallikrein activity in ellagic acid-activated human plasma, Z-FR-2-AMC substrate
# Type: biochemical
# Conditions: human plasma activated with ellagic acid, 37° C.
# Description: The ability of the compounds disclosed herein to inhibit cellular kallikrein activity was quantified and the respective EC50 value was determined.
# All dilutions were prepared in an assay buffer comprising 50 mM Tris-HCl pH 7.2, 150 mM NaCl, and 0.01% Triton X-100.
# The ten solutions of the test compounds, prepared by serial dilution, were further diluted 50-fold in the assay buffer.
# Human plasma is thawed on ice and centrifuged for 15 min at 4° C. to remove platelets. A 1 mM stock solution of ellagic acid is diluted to 8 μM and mixed with human plasma, after removing platelets, at a ratio of 1:0.8.
# A 22.5 μL volume of the final mixture of human plasma and ellagic acid was added to a 96-well microwell plate and the plate was incubated for 15 min at 37° C.
# The CINH inhibitor at various concentrations, prepared by serial dilutions as described above, were added to the inhibitor control wells. […] Each CINH concentration is tested in duplicates.
# The test compounds at various concentrations, also prepared by serial dilutions as described above, are added to the test wells. […] Each test compound concentration was tested in duplicates.
# In addition to the inhibitor control and test wells, the 96 well assay plate includes positive control wells which contained the mixture of human plasma and ellagic acid without C1NH inhibitor or test compounds, and background wells which contained neither the mixture of human plasma and ellagic acid nor the test compounds. The total volume of liquid in positive control and background wells was brought up to 35 μL, using the assay buffer.
# The assay plate containing C1NH inhibitors and test compounds mixed with human plasma and ellagic acid and appropriate controls was incubated at 37° C. for 5 min. […] The reagents were mixed well by shaking the plate gently for 30 sec.
# The enzyme reaction was quantified by immediate kinetic reading of the assay plate using excitation/emission wavelengths of 330 nm/440 nm respectively. Fluorescence intensity was recorded for 60 min, using a time interval of 43 sec.
# The inhibition activity of the test compounds were evaluated using the EC50 values, calculated according to the dose-response curve of the test compounds, fitted using the “log(inhibitor)−response (variable slope)” equation in GraphPadPrism software (GraphPad Software, Inc.).
# The percentage inhibition was calculated using the following equation:
# [formula] where, Mean (BG) is the average value of the fluorescence intensity of the background wells and Mean (PC) is the average value of the fluorescence intensity of the positive control wells.
# Table 4 provides the EC50 values of various compounds disclosed herein.
# Chain of cellular kallikrein activity (P03952 391-638): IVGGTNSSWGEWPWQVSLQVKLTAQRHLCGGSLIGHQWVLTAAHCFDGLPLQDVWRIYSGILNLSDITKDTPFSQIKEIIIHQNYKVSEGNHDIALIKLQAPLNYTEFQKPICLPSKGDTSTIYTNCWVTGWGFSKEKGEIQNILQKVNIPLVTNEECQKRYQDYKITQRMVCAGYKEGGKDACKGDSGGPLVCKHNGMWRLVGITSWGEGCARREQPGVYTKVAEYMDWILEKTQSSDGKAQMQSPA
# Chain of cellular kallikrein activity (P03952 20-390 partner): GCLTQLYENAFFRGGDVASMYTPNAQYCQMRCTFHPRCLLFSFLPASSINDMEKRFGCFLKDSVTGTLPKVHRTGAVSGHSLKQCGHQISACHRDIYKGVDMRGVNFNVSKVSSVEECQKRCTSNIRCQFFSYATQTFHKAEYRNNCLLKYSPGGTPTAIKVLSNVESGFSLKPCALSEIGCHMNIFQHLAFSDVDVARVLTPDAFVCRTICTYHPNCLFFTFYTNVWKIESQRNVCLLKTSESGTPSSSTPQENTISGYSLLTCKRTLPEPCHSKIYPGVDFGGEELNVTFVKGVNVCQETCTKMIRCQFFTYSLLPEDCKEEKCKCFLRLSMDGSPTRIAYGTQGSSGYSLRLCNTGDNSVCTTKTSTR
row,EC50 [nM],Compound
1,< 100,"COC(=O)c1cc(Cc2cc(C(=O)NCc3c(C)cc(N)nc3C)ccn2)cc2cc(Cl)cnc12 [Example 92, methyl 6-((4-(((6-amino-2,4-dimethylpyridin-3-yl)methyl)carbamoyl)pyridin-2-yl)methyl)-3-chloroquinoline-8-carboxylate]"
2,< 100,"Cc1cc(N)nc(C)c1CNC(=O)c1ccnc(Cc2cc(C(=O)O)c3ncc(Cl)cc3c2)c1 [Example 93, 6-((4-(((6-amino-2,4-dimethylpyridin-3-yl)methyl)carbamoyl)pyridin-2-yl)methyl)-3-chloroquinoline-8-carboxylic acid]"
3,< 100,"Cc1nc(N)ccc1CNC(=O)c1ccnc(Cc2cc(CO)c3ncc(Cl)cc3c2)c1 [Example 97, N-((6-amino-2-methylpyridin-3-yl)methyl)-2-((3-chloro-8-(hydroxymethyl)quinolin-6-yl)methyl)isonicotinamide]"
4,< 100,"Cc1cc(N)nc(C)c1CNC(=O)c1ccnc(Cc2ccc3c(cc(Cl)c[n+]3[O-])c2)c1 [Example 99, 6-((4-(((6-amino-2,4-dimethylpyridin-3-yl)methyl)carbamoyl)pyridin-2-yl)methyl)-3-chloroquinoline 1-oxide]"
5,< 100,"Cc1nc(N)ccc1CNC(=O)c1ccnc(Cc2cc(Cl)c3ncc(Cl)cc3c2)c1 [Example 101, N-((6-amino-2-methylpyridin-3-yl)methyl)-2-((3,8-dichloroquinolin-6-yl)methyl)isonicotinamide]"
6,100 to 1000,"Cc1cc(N)nc(C)c1CNC(=O)c1ccnc(Cc2ccc3ncc(Cl)cc3c2F)c1 [Example 102, N-((6-amino-2,4-dimethylpyridin-3-yl)methyl)-2-((3-chloro-5-fluoroquinolin-6-yl)methyl)isonicotinamide]"
7,< 100,"Cc1cc(N)nc(C)c1CNC(=O)c1ccnc(Cc2cc3cc(Cl)cnc3cn2)c1 [Example 148, N-((6-amino-2,4-dimethylpyridin-3-yl)methyl)-2-((3-chloro-1,7-naphthyridin-6-yl)methyl)isonicotinamide]"
8,100 to 1000,"Cc1cc(N)nc(C)c1CNC(=O)c1cc(Cc2ccc3ncc(Cl)cc3c2)nc(C(=O)O)c1 [Example 209, 4-((6-amino-2,4-dimethylpyridin-3-yl)methylcarbamoyl)-6-((3-chloroquinolin-6-yl)methyl)picolinic acid]"

row,Compound,EC50 [nM]
1,"Cc1cc(C(=O)NCc2c(C)cc(N)nc2C)cc(Cc2ccc3ncc(Cl)cc3c2)n1 [Example 104, N-((6-amino-2,4-dimethylpyridin-3-yl)methyl)-2-((3-chloroquinolin-6-yl)methyl)-6-methylisonicotinamide]",< 100

# Target: human plasma kallikrein (Homo sapiens (Human), UniProt P03952)
# Experiment: In vitro enzyme inhibition of human plasma kallikrein (PFR-AMC cleavage)
# Type: biochemical
# Conditions: Pro-Phe-Arg-AMC substrate, 37° C., read-out: hPK IC50
# Procedure, shortened: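 Human plasma kallikrein and compound, diluted in 50 mM Tris-HCl pH 7.5, 150 mM NaCl, 0.01% Triton X-100, preincubated 5 min at 37 °C before PFR-AMC was added.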
# Chain of human plasma kallikrein (P03952 391-638): as the sequence (P03952 391-638) above
# Chain of human plasma kallikrein (P03952 20-390 partner): as the sequence (P03952 20-390 partner) above
row,IC50 [nM],Compound
1,< 100,"Cc1cc(N)nc(C)c1CNC(=O)c1ccnc(Cc2cc3cc(Cl)cnc3cn2)c1 [Example 148, N-((6-amino-2,4-dimethylpyridin-3-yl)methyl)-2-((3-chloro-1,7-naphthyridin-6-yl)methyl)isonicotinamide]"
2,< 100,"Cc1cnc2c(C(C)(C)O)cc(Cc3cc(C(=O)NCc4n[nH]c5ccc(Cl)cc45)ccn3)cc2c1 [Example 317, N-((5-chloro-1H-indazol-3-yl)methyl)-2-((8-(2-hydroxypropan-2-yl)-3-methylquinolin-6-yl)methyl)isonicotinamide]"
3,< 100,"Cc1cnc2c(C(C)(C)O)cc(Cc3cc(C(=O)NCc4c(C)cc(N)nc4C)ccn3)cc2c1 [Example 318, N-((6-amino-2,4-dimethylpyridin-3-yl)methyl)-2-((8-(2-hydroxypropan-2-yl)-3-methylquinolin-6-yl)methyl)isonicotinamide]"
4,< 100,Cc1cnc2c(C(C)(C)O)cc(Cc3cc(C(=O)NCc4ccc5c(N)nccc5c4)ccn3)cc2c1 [Example 319]

row,Compound,IC50 [nM]
1,"O=C(NCc1cc2c(Cl)c[nH]c2cc1F)c1ccnc(Cc2ccc3ncc(N4CCC4)cc3c2)c1 [Example 320, 2-((3-(azetidin-1-yl)quinolin-6-yl)methyl)-N-((3-chloro-6-fluoro-1H-indol-5-yl)methyl)isonicotinamide]",< 100
2,"N-(6-amino-2,4-dimethyl-pyridin-3-ylmethyl)-2-(2-cyano-quinolin-6-ylmethyl)-isonicotinamide [Example 131]",< 100
